Experimental data: patent US9765115B2, “Inhibitors of metastasis, methods of generating such inhibitors and their therapeutic applications” (Board of Supervisors of Louisiana State University acting …, priority 2011, dated 2017)
Values belong to the molecule of their own block, whether it stands above or below them.

How the values were obtained:
ZO-1 = molecular target: T1, ZO-1 (Homo sapiens, UniProt Q07157); test: 125I-Pep I binding to ZO-1 (ZO-1 immunoprecipitation, autoradiography)
T1 construct: expressed in transfected cells; host or cells: PC-3CTR-ZO-1-MYC cells
Experimental: The cells were then treated with ^125I-TAT-pepI or TAT-C for 25 min. The cell lysates were then immunoprecipitated with Anti-ZO-1 serum, the immunoprecipitates were washed, fractionated on SDS-gel, and then immunoblotted for ZO-1 and autoradiographed.
As shown above, CTR binds to ZO-1 through PDZ interaction (i.e. PDZ ligand on C-tail of CTR binds to the PDZ domain of ZO-1). To attenuate this binding, ZO-1 was saturated with a small C-terminal peptide of CTR sequence containing the PDZ-binding motif. Since ZO-1 is an intracellular membrane protein, the interfering peptide was delivered inside the plasma membrane. It has been shown that trans-activating transcriptional activator (TAT) protein (86-mer polypeptide) from HIV-1 enters mammalian cells when added to the surrounding media (Frankel et al., 1988; Green et al., 1989). Certain small regions of such proteins (10-16-mers) called protein transduction domains (PTDs), also efficiently traverse biological membranes (Elliott et al., 1997). Therefore, a fusion peptide Pep 1 was synthesized of TAT-peptide sequences of HIV virus and CTR-C(N-[…]-C (SEQ ID NO:2), CTR-C sequence underlined). The first experiment was to see if Pep I binds to ZO-1 in reversible fashion. For this, amino acid Y in Pep I was labeled with ^125I, and the binding with ZO-1 analyzed in the presence/absence of unlabeled Pep I (1000×; 20 μM). […]

PC-3-CTR-wt cells = test: Matrigel in vitro invasion assay; type: cell-based; conditions: for effect on CT-induced invasion / effect on basal invasion: peptide 50 μM; for effect on CT-induced invasion: CT 50 nM; for effect on basal invasion: no CT
Experimental: Invasion experiments were conducted in Matrigel™ invasion chambers as previously described (Sabbisetti et al., 2005).
CT increases invasiveness, and even induces an invasive phenotype in non-invasive prostate cancer cells. The role of PDZ-binding motif in CT-stimulated invasion was examined. FIG. 2C depicts CTR-C PDZ-binding motif mutation and effects on cell invasion. PC-3V, PC-3 CTRwt and PC-3 CTRΔESS cells were added to upper insert of invasion chambers with or without 50 nM CT, and cells that passed through the Matrigel™ barrier were counted after 48 h. The results are expressed as mean number of invaded cells per 400× field ±SEM (n=6; *p<0.05 (PC-3V v PC-3CTR-wt); $ p<0.05 (PC-3CTR-wt v PC-3CTRΔESS); $$-p<0.05 (PC-3CTRwt+CT v PC-3CTRΔESS+CT) (one-way ANOVA and Newman-Keul's test)). Expression of CTRwt in PC-3 cells increased invasion by 2.5-fold (FIG. 2C).
(§1) As shown above, CTR binds to ZO-1 through PDZ interaction (i.e. PDZ ligand on C-tail of CTR binds to the PDZ domain of ZO-1). To attenuate this binding, ZO-1 was saturated with a small C-terminal peptide of CTR sequence containing the PDZ-binding motif. Since ZO-1 is an intracellular membrane protein, the interfering peptide was delivered inside the plasma membrane. It has been shown that trans-activating transcriptional activator (TAT) protein (86-mer polypeptide) from HIV-1 enters mammalian cells when added to the surrounding media (Frankel et al., 1988; Green et al., 1989). Certain small regions of such proteins (10-16-mers) called protein transduction domains (PTDs), also efficiently traverse biological membranes (Elliott et al., 1997). Therefore, a fusion peptide Pep 1 was synthesized of TAT-peptide sequences of HIV virus and CTR-C(N-[…]-C (SEQ ID NO:2), CTR-C sequence underlined). The first experiment was to see if Pep I binds to ZO-1 in reversible fashion. For this, amino acid Y in Pep I was labeled with ^125I, and the binding with ZO-1 analyzed in the presence/absence of unlabeled Pep I (1000×; 20 μM). PC-3CTR-ZO-1-MYC cells were first incubated with unlabeled Pep I or control peptide (20 μM) for 5 min. The cells were then incubated with ^125I-pep I or C for 25 min. The cells were then washed in IP buffer, treated with DSP, and lysed. ZO-1 IPs were obtained, fractionated on SDS-PAGE, and autoradiographed. […] Next, whether Pep I competes with CTR for ZO-1 binding was tested. For this, PC-3-CTR-wt cells were treated with CT (50 nM) and or Pep I (50 μM) for 15 min. The CTR IPs were then immunoblotted and probed for ZO-1 immunoreactivity. […] Next, the biological impact of this phenomenon was examined by testing the effect of Pep I on CTR-stimulated invasion.
The binding of ZO-1 and CTR can be attenuated by saturating ZO-1 with a small C-terminal peptide of CTR sequence containing the PDZ ligand. Since ZO-1 is an intracellular membrane protein, the interfering peptide must penetrate plasma membrane to interact with ZO-1. As discussed above, fusion peptides of small TAT peptides (12-mer) and six (Pep I) or eight amino acids (Pep II) of C-terminal of CTR were synthesized. Control peptides were TAT peptides (12-mer) containing random amino acid sequence of equivalent size (6-mer). […] Thus, these two peptides (sequences given below) could be used therapeutically to attenuate or inhibit metastasis in cancerous cells.

CTR-ZO-1 interaction = test: CTR-ZO-1 co-immunoprecipitation; type: cell-based; conditions: Pep I 50 μM, with or without CT 50 nM, PC-3-CTR-wt cells
Experimental: Serum-starved PC-31-V, PC-31-CTRwt or PC-31-CTRΔESS cells (2×10^6 per 100 mm dish) were stimulated with or without 50 nM CT for 3 min, washed, and lysed in the IP buffer as previously described (von Zastrow et al., 1994). CTR in normalized lysate proteins was immunoprecipitated with anti-FLAG EZ-view beads (Sigma Chemical Co., St. Louis, Mo.), and eluted with FLAG peptide (600 μg/ml in PBS). CTR immunoprecipitates were processed for ZO-1 immunoblotting. To control for protein loading and transfer, the blots were stripped and reprobed with immunoprecipitating antibody.
PC-31 cells stably expressing either FLAG-CTRwt or FLAGCTRΔESS were treated with or without CT for 3 min. The analysis of FLAG-CTR IPs confirmed that only FLAG-CTRwt, but not FLAG-CTRΔESS, co-precipitated ZO-1 (FIG. 3B). […] The effect of multiple CT concentrations on CTR-ZO-1 co-precipitation was tested in PC-3 cells. […] However, co-precipitation of ZO-1 by CTRwt was strong in PC-3 cells stimulated with 10 nM CT, and was even stronger in the cells receiving 100 nM CT.
as §1

protein kinase A (PKA) = test: PKA activity in cell lysates; type: cell-based; conditions: 100 nM of mPKI, 10 μM of H-89
Experimental: The lysates of untreated and CT-treated PC-3CTRwt and PC-3CTRΔESS cells were also used to determine CT-stimulated protein kinase A (PKA) and protein kinase C (PKC) activity (PKA and PKC assay kits, Promega, Madison, Wis.). The manufacturer's instructions were followed.
FIG. 1E depicts the effect of 50 nM CT on PKA activity in cell lysates of untreated and CT-treated PC-3 CTRwt and PC-3 CTRΔESS cells that were incubated with PKA substrate peptide and ^32P-ATP, and also treated with an activator of PKA, forskolin (FSK). FIG. 1F depicts the effect of 50 nM CT on PKC activity in lysates of untreated and CT-treated PC-3 CTRwt and PC-3 CTRΔESS cells that were incubated with PKC substrate peptide and ^32P-ATP, and also treated with an activator of PKC, phorbol 12-myristate 13-acetate (PMA).
To test whether specific PKA inhibitors abrogate CT-induced TJ disassembly, two specific, well-characterized PKA inhibitors, mPKI and H-89, were used. PC-3CTRwt cells were treated with CT (50 nM for 30 min) in the presence of mPKI (100 nM) or H-89 (10 μM). Either of these inhibitors was added 15 min prior to the addition of CT. […] FIG. 16A depicts photo micrographs of PC3-CTRwt cells, CT-stimulated in the presence and absence of mPKI. […]

[1] = test system: TCF/LEF promoter activity in PC-3 cells; test: TCF/LEF luciferase reporter assay (pGL3-OT/pGL3-OF); type: cell-based
Experimental: FIG. 28 depicts effect of CT on TCF/LEF promoter activity in PC-3 cells with various compounds added with CT. Cells were seeded into 6-well plates and transfected with the pGL3-OT luciferase/pRL-tK plasmids or pGL3-OF-luciferase/pRL-TK plasmids. The cells were then incubated in complete medium for 48 h, after which they were serum-starved for 16 h. The cells were then treated with CT and/or PMH compounds, and the cell lysates analyzed for luciferase activity. The results are expressed as relative light units (RLU) after normalization with Renilla luciferase activity. The experiment was repeated three separate times, and results expressed as means±S.E.M.
Certain hydantoin-like molecules isolated from sea sponge have been identified that could inhibit prostate cell metastasis (Shah et al., 2009; Mudit et al., 2011). Disruption of junctional complex stabilizes intracellular β-catenin, leading to its translocation in the nucleus, where it can bind to its partner LEF-1 (lymphocyte enhancer binding factor-1) to transactivate target genes. The transcription of TCF/LEF genes can be quantitated by using luciferase-based reporter plasmids, pGL3-OT and pGL3-OF, the improved version of the Topflash and Fopflash vectors (Shah et al., 2009). This assay can be used to comparatively evaluate junction disrupting activity of multiple compounds in a single assay. […] The two compounds, MRM-6 and MRM-4, derivatives of PMH whose structures are shown below, were obtained from Dr. K. A. El Sayed.

prostate tumor = conditions: Shah et al., 2009; cited from earlier work

T1 sequence (Q07157 whole entry): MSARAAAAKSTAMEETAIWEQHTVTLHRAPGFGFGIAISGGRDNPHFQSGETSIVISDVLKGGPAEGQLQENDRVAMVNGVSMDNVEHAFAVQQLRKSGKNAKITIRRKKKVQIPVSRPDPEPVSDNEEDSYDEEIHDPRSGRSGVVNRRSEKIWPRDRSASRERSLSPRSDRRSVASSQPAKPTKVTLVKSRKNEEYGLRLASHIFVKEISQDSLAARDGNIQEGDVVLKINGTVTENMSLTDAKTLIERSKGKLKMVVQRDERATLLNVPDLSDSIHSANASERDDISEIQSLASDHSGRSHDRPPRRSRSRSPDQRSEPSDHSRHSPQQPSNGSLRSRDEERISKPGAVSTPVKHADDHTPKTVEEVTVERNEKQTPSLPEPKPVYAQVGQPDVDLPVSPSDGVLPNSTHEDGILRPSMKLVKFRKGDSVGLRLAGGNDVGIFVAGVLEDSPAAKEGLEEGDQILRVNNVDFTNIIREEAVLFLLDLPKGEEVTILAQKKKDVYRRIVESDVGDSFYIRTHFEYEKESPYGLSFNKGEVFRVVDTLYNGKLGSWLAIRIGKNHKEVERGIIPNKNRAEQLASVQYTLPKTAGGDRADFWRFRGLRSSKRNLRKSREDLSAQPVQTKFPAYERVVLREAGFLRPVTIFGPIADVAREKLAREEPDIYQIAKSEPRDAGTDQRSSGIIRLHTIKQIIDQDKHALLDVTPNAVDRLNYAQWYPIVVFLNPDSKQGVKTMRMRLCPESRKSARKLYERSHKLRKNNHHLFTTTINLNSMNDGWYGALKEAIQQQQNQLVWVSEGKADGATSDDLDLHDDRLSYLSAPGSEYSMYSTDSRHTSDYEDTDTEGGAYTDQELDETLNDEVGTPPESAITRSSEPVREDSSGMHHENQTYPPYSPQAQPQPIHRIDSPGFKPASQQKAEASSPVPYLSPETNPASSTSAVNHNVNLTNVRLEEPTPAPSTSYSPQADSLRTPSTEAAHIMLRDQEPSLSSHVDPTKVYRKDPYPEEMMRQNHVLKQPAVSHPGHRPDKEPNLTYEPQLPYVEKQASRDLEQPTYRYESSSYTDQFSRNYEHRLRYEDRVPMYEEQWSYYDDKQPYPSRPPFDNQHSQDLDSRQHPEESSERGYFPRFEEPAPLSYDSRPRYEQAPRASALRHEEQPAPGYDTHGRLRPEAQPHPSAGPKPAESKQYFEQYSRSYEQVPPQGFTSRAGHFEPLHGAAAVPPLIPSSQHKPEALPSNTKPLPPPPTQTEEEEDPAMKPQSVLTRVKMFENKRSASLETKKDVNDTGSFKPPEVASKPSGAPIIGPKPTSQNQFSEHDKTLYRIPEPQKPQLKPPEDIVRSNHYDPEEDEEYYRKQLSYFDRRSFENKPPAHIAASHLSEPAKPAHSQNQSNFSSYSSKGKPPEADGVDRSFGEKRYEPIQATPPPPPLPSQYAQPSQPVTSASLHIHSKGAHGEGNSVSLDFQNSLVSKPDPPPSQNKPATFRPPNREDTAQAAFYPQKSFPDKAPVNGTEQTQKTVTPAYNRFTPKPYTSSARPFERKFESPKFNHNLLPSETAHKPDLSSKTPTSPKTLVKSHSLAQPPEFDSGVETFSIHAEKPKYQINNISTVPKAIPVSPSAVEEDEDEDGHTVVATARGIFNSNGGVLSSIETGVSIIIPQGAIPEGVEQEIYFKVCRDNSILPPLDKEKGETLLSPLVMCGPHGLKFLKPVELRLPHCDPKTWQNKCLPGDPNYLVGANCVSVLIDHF

- binding to ZO-1 (co-IP of 125I-labeled peptide) (ZO-1; PC-3CTR-ZO-1-MYC cells, 25 min): bound to ZO-1
- binding of 125I-Pep I to ZO-1 in the presence of unlabeled Pep I (ZO-1; unlabeled Pep I 1000×, 20 μM): almost abolished
Molecule: N-EQESSAAYGRKKRRQRRR-C [Pep I]
- relative potency as antagonist of CT-induced invasion (PC-3-CTR-wt cells; Pep I versus Pep II, 50 μM): the more potent antagonist
- effect on CT-induced invasion (PC-3-CTR-wt cells): significantly attenuated
- effect on CT-induced invasion (PC-3-CTR-wt cells; listed as TAT-pepI): attenuate
- effect on basal invasion (PC-3-CTR-wt cells): neither the control peptide nor Pep I (50 μM) significantly affected
- effect on basal invasion (PC-3-CTR-wt cells; listed as PepI): did not significantly affect
- effect on CTR-ZO-1 co-precipitation (CTR-ZO-1 interaction): markedly diminished

Molecule: O=S(=O)(NCCNC/C=C/c1ccc(Br)cc1)c1cccc2cnccc12 [Pep H-89]
- effect on CT-stimulated PKA activity (protein kinase A (PKA)): completely abolished

Molecule: O=C1NC(=O)/C(=C/c2ccccc2)N1 [PMH, phenyl-methylene hydrantoin]
- effect on CT-stimulated luciferase activity ([1]; with 50 nM CT): decreased it remarkably
- cell-cell adhesion, prostate tumor growth and metastasis (prostate tumor): enhance cell-cell adhesion and attenuate prostate tumor growth and metastasis

Molecule: CCSC1=N/C(=C\c2ccccc2)C(=O)N1 [S-PMH]
- cell-cell adhesion, prostate tumor growth and metastasis (prostate tumor): enhance cell-cell adhesion and attenuate prostate tumor growth and metastasis

Molecule: N-IIEQESSAYGRKKRRQRRR-C [Pep II]
- effect on CT-induced invasion (PC-3-CTR-wt cells): significantly attenuated
- effect on CT-induced invasion (PC-3-CTR-wt cells; listed as pepII): attenuate
- effect on basal invasion (PC-3-CTR-wt cells): did not significantly affect

Molecule: O=C1NC(=O)/C(=C/c2ccc(/C=C3/NC(=O)NC3=O)cc2)N1 [MRM-6, (5Z,5′E)-5,5′-(1,4-phenylenebis(methan-1-yl-1-ylidene))diimidazolidine-2,4-dione]
- potency relative to PMH and S-PMH in blocking CTR-ZO-1 interaction-mediated TCF/LEF activity [1]: more potent
- potency relative to PMH in inhibiting CT action ([1]; with 50 nM CT): significantly more potent than PMH

Molecule: Nc1ccc(/C=C2\NC(=O)NC2=O)c(Cl)c1 [MRM-4, (Z)-5-(4-amino-2-chlorobenzylidene)imidazolidine-2,4-dione]
- potency relative to PMH and S-PMH in blocking CTR-ZO-1 interaction-mediated TCF/LEF activity [1]: more potent
- potency relative to PMH in inhibiting CT action ([1]; with 50 nM CT): significantly more potent than PMH
